This note sets out measurements from patent US8507512B2, “Soluble guanylate cyclase activators” (Merck Sharp & Dohme Corp., priority 2009, dated 2013).

Structures are written as SMILES.

For the assay, the target named is T1, sGC α1/β1 heterodimer (Homo sapiens, UniProt Q02108+Q02153).
T1 construct: expressed in transfected cells
T1 sequence (Q02108 1-690 partner): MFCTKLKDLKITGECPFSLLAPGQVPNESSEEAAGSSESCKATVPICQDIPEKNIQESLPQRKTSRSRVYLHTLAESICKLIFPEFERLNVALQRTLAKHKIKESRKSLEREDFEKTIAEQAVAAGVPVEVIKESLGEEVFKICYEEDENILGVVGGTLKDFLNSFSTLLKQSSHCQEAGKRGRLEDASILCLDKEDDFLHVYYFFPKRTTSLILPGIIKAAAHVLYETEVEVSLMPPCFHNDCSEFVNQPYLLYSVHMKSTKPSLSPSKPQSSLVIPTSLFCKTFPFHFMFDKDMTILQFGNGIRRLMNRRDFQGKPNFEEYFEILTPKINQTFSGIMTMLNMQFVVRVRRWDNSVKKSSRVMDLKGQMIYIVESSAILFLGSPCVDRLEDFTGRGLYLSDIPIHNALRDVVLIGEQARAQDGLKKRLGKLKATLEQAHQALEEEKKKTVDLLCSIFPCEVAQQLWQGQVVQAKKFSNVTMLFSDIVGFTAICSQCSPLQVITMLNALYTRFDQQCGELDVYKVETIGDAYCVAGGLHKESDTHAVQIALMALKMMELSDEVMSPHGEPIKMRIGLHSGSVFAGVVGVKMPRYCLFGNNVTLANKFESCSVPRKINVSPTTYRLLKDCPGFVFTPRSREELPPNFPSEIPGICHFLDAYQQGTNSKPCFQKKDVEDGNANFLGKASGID
T1 sequence (Q02153 1-619): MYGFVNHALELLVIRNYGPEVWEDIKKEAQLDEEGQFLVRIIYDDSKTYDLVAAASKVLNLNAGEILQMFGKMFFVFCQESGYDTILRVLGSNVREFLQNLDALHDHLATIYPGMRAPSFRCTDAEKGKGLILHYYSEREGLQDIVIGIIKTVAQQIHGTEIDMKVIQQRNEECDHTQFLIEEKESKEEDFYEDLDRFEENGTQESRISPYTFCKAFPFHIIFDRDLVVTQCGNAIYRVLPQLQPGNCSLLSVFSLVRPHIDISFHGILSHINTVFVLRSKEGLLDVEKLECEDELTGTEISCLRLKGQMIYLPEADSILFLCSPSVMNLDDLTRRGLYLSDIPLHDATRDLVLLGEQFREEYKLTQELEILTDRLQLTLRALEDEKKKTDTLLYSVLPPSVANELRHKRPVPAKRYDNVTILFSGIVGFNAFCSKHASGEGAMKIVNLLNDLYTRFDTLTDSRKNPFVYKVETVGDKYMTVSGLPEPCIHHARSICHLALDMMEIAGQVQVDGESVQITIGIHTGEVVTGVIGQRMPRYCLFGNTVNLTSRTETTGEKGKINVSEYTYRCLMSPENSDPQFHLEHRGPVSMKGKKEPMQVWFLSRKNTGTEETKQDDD
As to the kind of experiment: Cell-Based sGC Functional Assay (CASA Assay). The settings on record: CHO-K1/sGC cells, with ODQ incubation (10 μM), 1 hr at 37° C., intracellular cGMP by HTRF; for EC50: read-out: IP (nM) (inflection point); for fold induction: read-out: maximum fold induction over DMSO control. How it is done: Cell-Based sGC Functional Assay (CASA Assay)
Rationale: sGC is a heme-containing enzyme that converts GTP (guanosine 5′-triphosphate) to secondary messenger cGMP. Increases in cGMP levels affect several physiological processes including vasorelaxation through multiple downstream pathways. […] Heme-independent activators (HIAs) preferentially activate sGC containing a ferric heme group, which can be generated upon incubation with 1H-(1,2,4)oxadiazolo(4,3-a) quinoxalin-1-one (ODQ). To determine the effect of sGC activators on enzyme activity, the CASA assay was developed to monitor the generation of cGMP in a cell line that stably expresses the heterodimeric sGC protein.
Methods: A CHO-K1 cell line stably expressing the sGC αl/β1 heterodimer was generated using a standard transfection protocol. CHO-K1 cells were transfected with plasmids pIREShyghsGCα1 and pIRESneo-hsGCβ1 simultaneously using FUGENE reagent. Clones that stably express both subunits were selected with hygromycin and neomycin for ˜2 weeks. Clone #7 was chosen for the assay and was designated CHO-K1/sGC. CHO-K1/sGC cells were maintained in F-K12 medium containing 10% heat-inactivated Fetal Bovine Serum (FBS), 100 μg/mL penicillin/streptomycin, 0.5 mg/mL hygromycin and 0.25 mg/mL G418. On the day of the assay, cells were harvested in EBSS (Earle's balanced salt solution) Assay Buffer (EAB) containing 5 mM MgCl2, 10 mM HEPES (4-(2-hydroxyethyl)piperazine-1-ethanesulfonic acid) and 0.05% BSA (bovine serum albumin) and cell density was adjusted to 2×10^6/mL with EAB. IBMX (3-isobutyl-1-methylxanthin, 0.5 mM) was added to inhibit degradation of cGMP. Compounds were diluted from DMSO stock solutions and added to the assay at a final DMSO concentration of 1%. Cells were incubated with compounds in the presence and absence of 10 μM of 1H-(1,2,4)oxadiazolo(4,3-a) quinoxalin-1-one (ODQ) for 1 hr at 37° C. At the end of the incubation period, the reaction was terminated and the cells were lysed. The level of intracellular cGMP was determined using an HTRF-based assay kit (CisBio, 62GM2PEC), which detects the displacement of a fluorescence labeled cGMP from its specific antibody. The amount of cGMP was plotted against compound concentration in PRISM software and the inflection point (IP) and maximum fold induction over DMSO control were derived from the plot.
Background: Time-resolved FRET reads energy transfer from a long-lived donor to a nearby acceptor.

For the molecule `O=C(O)c1cnn(-c2cccc(-c3ccccc3OCc3ccc(C4CCN(CC(F)(F)F)CC4)cc3)n2)c1C(F)(F)F` [Example 1, 1-[6-[2-[[4-[1-(2,2,2-Trifluoroethyl)-4-piperidinyl]phenyl]methoxy]phenyl]-2-pyridinyl]-5-(trifluoromethyl)-1H-pyrazole-4-carboxylic acid], the EC50 was determined as 51.5 nM and the fold induction was found to be 281.

Take `O=C(O)c1cnn(-c2cccc(-c3cc(F)cc(Cl)c3OCc3ccc(C4CCN(CC(F)(F)F)CC4)cc3)n2)c1C(F)(F)F` [Example 2, 1-(6-(3-Chloro-5-fluoro-2-((4-(1-(2,2,2-trifluoroethyl)piperidin-4-yl)benzyl)oxy)phenyl)pyridin-2-yl)-5-(trifluoromethyl)-1H-pyrazole-4-carboxylic acid]: the EC50 was determined as 2.4 nM and the fold induction was determined as 189.

Consider `Cc1cc(C2CCN(CC(F)(F)F)CC2)ccc1COc1ccccc1-c1cccc(-n2ncc(C(=O)O)c2C(F)(F)F)n1` [Example 3, 1-(6-(2-((2-Methyl-4-(1-(2,2,2-trifluoroethyl)piperidin-4-yl)benzyl)oxy)phenyl)pyridin-2-yl)-5-(trifluoromethyl)-1H-pyrazole-4-carboxylic acid], for which the EC50 was determined as 10.4 nM and the fold induction is 127.

As to `COC(=O)N1CCC(c2ccc(COc3c(F)cccc3-c3cccc(-n4ncc(C(=O)O)c4C(F)(F)F)n3)cc2)CC1` [Example 5, 1-{6-[3-fluoro-2-({4-[1-(methoxycarbonyl)piperidin-4 yl]benzyl}oxy)phenyl]pyridin-2-yl}-5-(trifluoromethyl)-1H-pyrazole-4-carboxylic acid], the EC50 came to 26.9 nM and the fold induction amounted to 244.

As to `CCC(=O)N1CCC(c2ccc(COc3c(-c4cccc(-n5ncc(C(=O)O)c5C(F)(F)F)n4)cccc3C(F)(F)F)cc2)CC1` [Example 76, 1-(6-(2-((4-(1-propionylpiperidin-4-yl)benzyl)oxy)-3-(trifluoromethyl)phenyl)pyridin-2-yl)-5-(trifluoromethyl)-1H-pyrazole-4-carboxylic acid], the EC50 was under 0.5 nM and the fold induction is 216.

Regarding `COC(=O)N1CCC(c2ccc(COc3c(-c4cccc(-n5ncc(C(=O)O)c5C(F)(F)F)n4)cccc3C(F)(F)F)cc2)CC1` [Example 77, 1-(6-(2-((4-(1-(methoxycarbonyl)piperidin-4-yl)benzyl)oxy)-3-(trifluoromethyl)phenyl)pyridin-2-yl)-5-(trifluoromethyl)-1H-pyrazole-4-carboxylic acid], the EC50 is 1.5 nM and the fold induction is 151.

For `O=C(O)c1cnn(-c2cccc(-c3cccc(C(F)(F)F)c3OCc3ccc(C4CCN(C(=O)C5CC5)CC4)cc3)n2)c1C(F)(F)F` [Example 81, 1-(6-(2-((4-(1-(cyclopropylcarbonyl)piperidin-4-yl)benzyl)oxy)-3-(trifluoromethyl)phenyl)pyridin-2-yl)-5-(trifluoromethyl)-1H-pyrazole-4-carboxylic acid], the EC50 was determined as 2.6 nM and the fold induction is 170.

As to `O=C(O)c1cnn(-c2cccc(-c3cccc(Cl)c3OCc3ccc(C4CCN(C(=O)C5CC5)CC4)cc3)n2)c1C(F)(F)F` [Example 84, 1-(6-(3-chloro-2-((4-(1-(cyclopropylcarbonyl)piperidin-4-yl)benzyl)oxy)phenyl)pyridin-2-yl)-5-(trifluoromethyl)-1H-pyrazole-4-carboxylic acid], the EC50 turned out to be 5.4 nM and the fold induction is 50.
